Data from ChEMBL document CHEMBL1157539, “Thousands of chemical starting points for antimalarial lead identification” (Nature, 2010).

system: Plasmodium falciparum; assay: GSK_TCMDC: Inhibition of Plasmodium falciparum 3D7 in whole erythrocytes, using parasite LDH activity as an index of growth.; format: functional, organism-based; conditions: Plasmodium falciparum, 3D7

Point of comparison: `COc1cccc2cc(C(=O)N[C@@H](CC(C)C)C(=O)N[C@H](C=NN3CC(=O)NC3=O)CC(C)C)oc12`, XC50 920 nM. Against it:
- O=C(Nc1ccc(Cl)cc1)Nc1cccc(-c2cccc(-c3nc4ccccc4[nH]3)c2)c1 — 7-fold lower, 131 nM
- O=C(c1cccs1)N(Cc1cccc(-c2ccc(CNC3CCCC3)cc2)c1)C1CCN(Cc2ccccc2)CC1 — within 1.5-fold, 1130 nM
- O=C(Cc1ccc(F)cc1)NC1CCN(c2ccnc3cc(Cl)ccc23)C1 (stereo unspecified) — 1.9-fold lower, 484 nM
- O=c1cc(NCCCNCc2scc3c(Cl)cc(C(F)(F)F)nc23)[nH]c2ccccc12 — within 1.5-fold, 754 nM
- Cc1cc(=NN=Cc2ccc(Cl)cc2)c2cc(F)ccc2[nH]1 — within 1.5-fold, 828 nM
- N#Cc1cccc(CN2CCCN(c3ccc(NC(=O)c4cccs4)cc3)CC2)c1 — within 1.5-fold, 809 nM
- CCOc1ccc2c(c1)C(C)(c1ccc3c(c1)C(C)CC(C)(C)N3)CC(C)(C)N2 (stereo unspecified) — within 1.5-fold, 803 nM
- COc1c(C2CCN(CCCCNC(=O)c3cc(-c4ccc(Cl)cc4)[nH]c3C)CC2)ccc2c1CCCC2 — within 1.5-fold, 970 nM
- O=C(Nc1cccnc1)c1cc(-c2cccnc2)nc2ccc(Cl)cc12 — within 1.5-fold, 1060 nM
- O=C(Cc1cc(=O)oc2cc(O)ccc12)NC1CCC(CN2CCC(c3c[nH]c4ccccc34)CC2)CC1 (stereo unspecified) — within 1.5-fold, 1130 nM
- COc1ccc(C[C@H](N)C(=O)N[C@H]2[C@@H](O)[C@H](n3cnc4c(N(C)C)ncnc43)O[C@@H]2CO)cc1 — 3.1-fold lower, 299 nM
- Cc1[nH]c(C)c(-c2ccc(OCCSc3ccncc3)cc2)c(=O)c1Br — 2.3-fold lower, 393 nM
- O=S(=O)(Nc1cc2c(cc1OCCCN1CCCCC1)CCNCC2)c1ccc(-c2ccc(Cl)cc2)cc1 — within 1.5-fold, 1000 nM
- CCCC(C)n1ccc2c3c(N)nc(N)nc3ccc21 (stereo unspecified) — 19-fold lower, 47.6 nM
- CN1CCC(C(=O)Nc2ccc(-c3cccc(-c4nc5cc(C(F)(F)F)ccc5[nH]4)c3)cc2)CC1 — 1.6-fold lower, 577 nM
- CC[C@H]1CN2CC[C@H]1C[C@H]2[C@H](O)c1cc(-c2cccc(C)c2)nc2ccc(OC)cc12 — 5.6-fold lower, 163 nM
- CN1CCC(NCc2cccc(-c3ccc(S(=O)(=O)NCCc4ccccn4)c(F)c3)c2)CC1 — within 1.5-fold, 918 nM
- CCN(CC)/C(=N/C(=N)NCc1ccc(Cl)cc1Cl)NCCCCCCN/C(=N\C(=N)NCc1ccc(Cl)cc1Cl)N(CC)CC — 4.2-fold lower, 218 nM
- O=C1Nc2ccc3ncccc3c2/C1=C/Nc1ccc(Cn2ccnc2)cc1 — within 1.5-fold, 659 nM
- CN1CCN(c2ccnc3ccc(NC(=O)Cc4ccc(Br)c5ccccc45)cc23)CC1 — within 1.5-fold, 807 nM
- O=S(=O)(NCCN1CCCC1)c1ccc(-c2ccc(CNCc3ccc(F)cc3)cc2)s1 — within 1.5-fold, 838 nM
- Cc1cccc2nc(-c3ccc(-c4ccc(CN5CCN(CC6CCCN(C)C6)CC5)cc4)cc3)[nH]c12 (stereo unspecified) — 6.4-fold lower, 144 nM
- COc1cc(NCCCCCNc2cc(Cl)nc3ccccc23)nc2ccccc12 — within 1.5-fold, 783 nM
- COC(=O)c1cccc(NC(=O)NC2CCN(c3ccnc(Nc4cc(OC)c(OC)c(OC)c4)n3)C2)c1 (stereo unspecified) — 1.8-fold lower, 512 nM
- Cc1cc(=NN=Cc2ccccc2)c2cc(C(F)(F)F)ccc2[nH]1 — 6-fold lower, 153 nM
- CCc1cccc(OCCCON2C(=N)N=C(N)NC2(C)C)c1 — 290-fold lower, 3.2 nM
- CCN1CCN(CCCCNc2c3ccccc3nc3ccccc23)CC1 — within 1.5-fold, 860 nM
- CN1CCC(NCc2ccc(-c3ccc(S(=O)(=O)NCc4ccccc4)cc3)cc2)CC1 — within 1.5-fold, 832 nM
- COc1ccc(Nc2ncc3c(-c4cccc(NC(=O)c5ccccc5)c4)c[nH]c3n2)cc1OC — 2-fold lower, 461 nM
- CN(C)CC(O)C(c1ccccc1)c1cccc(Br)c1 (stereo unspecified) — 5.6-fold lower, 164 nM
- O=S(=O)(c1cccc(Br)c1)N1CCCCC(c2ccc(C(F)(F)F)cc2)=N1 — 1.7-fold lower, 554 nM
- Cc1nnsc1C(=O)Nc1cccc(-c2cccc(-c3nc4cc(C(F)(F)F)ccc4[nH]3)c2)c1 — 3.9-fold lower, 235 nM
- CC(C)(C)c1cc(C(=O)N2CCN(c3ncccc3C(F)(F)F)CC2)n(Cc2ccccc2)n1 — 3.7-fold lower, 251 nM
- Oc1ccc(-c2ccccc2)cc1CNC1CCCCC1 — 1.9-fold lower, 497 nM
- O=C(Nc1cc(F)cc(-c2cccnc2)c1)c1ccc2c(=O)n(Cc3ccccc3)cnc2c1 — within 1.5-fold, 1330 nM
- O=C(Nc1ccc(N2CCN(c3ncccc3C(F)(F)F)CC2)nc1)c1cccs1 — within 1.5-fold, 1190 nM
- CCCC(C)Nc1nc(C)cc(N[C@@H](Cc2ccccc2)C(=O)NCCc2ccccc2)n1 (stereo partly specified) — within 1.5-fold, 954 nM
- N=C1N=C(N)NC2(CCCCC2)N1OCCCOc1cccc2ccccc12 — 290-fold lower, 3.2 nM
- COc1ccc(CN(C)CCCOc2ccc(NC(=O)c3cccc4c(=O)c5cccc(C)c5[nH]c34)cc2)cc1OC — within 1.5-fold, 889 nM
- O=C(NCCCCCN1CCC(c2c[nH]c3ccccc23)CC1)Nc1cccc(I)c1 — within 1.5-fold, 993 nM
- O=C(Nc1ccc(C(F)(F)F)cc1)c1ccc(S(=O)(=O)NC2CCN(CC3CCCCC3)CC2)cc1 — within 1.5-fold, 731 nM
- Cc1nnsc1C(=O)Nc1ccc(-c2ccc(-c3nc4ccccc4[nH]3)s2)cc1 — within 1.5-fold, 825 nM
- CCCCCN1CCN(Cc2cccc(NC(=O)c3ccc(Cl)c(Cl)c3)c2)CC1 — within 1.5-fold, 857 nM
- CC(C)N(CCOc1ccc2c(c1)N(C(=O)Nc1ccc(Cl)c(Cl)c1)CC2)C(C)C — 2.5-fold lower, 367 nM
- CCCCNC(=O)c1cc(CNC2CCCCC2)ccc1-c1cccc(CNCc2ccc(-c3ccccc3)cc2)c1 — 1.7-fold lower, 531 nM
- COc1ccc(NC(=O)c2cccc(Br)c2)cc1N1CCN(CCCCCCCN2CCN(c3cc(NC(=O)c4cccc(Br)c4)ccc3OC)CC2)CC1 — 5-fold lower, 184 nM
- CCCc1cc(Cc2cnc(N)nc2N)cc(CCC)c1OCCCCC(=O)OC — 22-fold lower, 41.9 nM
- CC(=O)Nc1nc(C(=O)Nc2cccc(-c3ccc(-c4nc5ccccc5[nH]4)cc3)c2)cs1 — 2.2-fold lower, 421 nM
- CC(=O)c1ccc(S(=O)(=O)N2CCC(C(=O)Nc3ccccc3N3CCCC3)CC2)cc1 — within 1.5-fold, 833 nM
- O=C(NC1CCN(Cc2ccccc2)CC1)c1ccc(-c2nc3cc(Cl)c(Cl)cc3[nH]2)c(F)c1 — within 1.5-fold, 736 nM
- NC(=O)c1ccc(C(=O)Nc2cccc(-c3ccc(-c4nc5cc(C(F)(F)F)ccc5[nH]4)cc3)c2)cc1 — 1.8-fold lower, 514 nM
- Cc1cnc(N2CCN(CC3CCN(C)CC3)CC2)nc1Oc1ccc(-n2ccnc2)cc1 — within 1.5-fold, 725 nM
- CS(=O)(=O)CCNCc1nc(-c2ccc3c(Nc4ccc(Oc5ccccn5)cc4)ccnc3c2)cs1 — within 1.5-fold, 675 nM
- CC(C)CNCc1cccc(-c2ccc(CNc3ccc4ncccc4c3)cc2)c1 — within 1.5-fold, 1060 nM
- CCCC(=O)Nc1ccc(OCCCN(Cc2ccccc2C(F)(F)F)c2ccc(C#N)c(C(F)(F)F)c2)cc1 — within 1.5-fold, 926 nM
- COc1ccc(NC(=O)[C@H](Cc2ccccc2)Nc2cc(C)nc(NCCc3cccs3)n2)cc1 — within 1.5-fold, 749 nM
- O=C(/C=C/c1ccc(Cl)cc1)NCCCCCN1CCCN(C(=O)Nc2cccc(Cl)c2)CC1 — within 1.5-fold, 1000 nM
- O=C(N[C@@H](Cc1ccccc1)C(=O)NCCN1CCCCC1)c1ccc(O)c(-c2ccc(Cl)c(Cl)c2)c1 — 1.7-fold higher, 1520 nM
- Cc1cccc2nc(-c3cccc(-c4cccc(CNCCCN5CCCC5=O)c4)c3)[nH]c12 — within 1.5-fold, 743 nM
- CN(C)Cc1ccc(-c2cc3ncnc(Nc4ccc(OCc5cccc(F)c5)c(Cl)c4)c3s2)[nH]1 — 5.3-fold lower, 174 nM
- CCOc1cc(C(=O)N[C@@H](Cc2ccccc2)[C@H](O)CNCc2cc(OC)cc(OC)c2)cc(N2CCCC2=O)c1 — within 1.5-fold, 852 nM
- COc1cc(CNCCCCCCNCc2cc(OC)c3ccccc3c2OC)c(OC)c2ccccc12 — within 1.5-fold, 700 nM
- COc1cc(Cc2cnc(N)nc2N)cc(OCCn2ccccc2=O)c1OC — within 1.5-fold, 773 nM
- COc1ccccc1-c1csc(C(=O)NCC2CCN(Cc3ccc(C(C)C)cc3)C2)c1 (stereo unspecified) — within 1.5-fold, 1350 nM
- CCc1cccc(-n2c(=O)c3cccnc3n2CC(=O)NC2CCCC2)c1 — within 1.5-fold, 932 nM
- COc1ccc(-c2cccc(CNC3CCN(CC4Cn5c(=O)ccc6ccc(F)c4c65)CC3)c2)cc1 (stereo unspecified) — within 1.5-fold, 1090 nM
- CN(C(=O)C(C)(C)Oc1ccc(Cl)cc1)C1CCN(CCCCCNC(=O)/C=C/c2ccc(Cl)c(Cl)c2)CC1 — within 1.5-fold, 916 nM
- Cc1ccc(NC(=O)c2ccc(CN3CCCN(Cc4cccc(Cl)c4)CC3)cc2)cc1C — within 1.5-fold, 1210 nM
- CN(CCC(CCN1CCC(c2c[nH]c3ccccc23)CC1)c1ccccc1)C(=O)Nc1ccc(Cl)c(Cl)c1 (stereo unspecified) — within 1.5-fold, 1190 nM
- O=S(=O)(NCCN1CCCC1)c1ccc(-c2ccc(CNCc3ccsc3)cc2)cc1 — within 1.5-fold, 853 nM
- COc1ccc(CCN(C)CCOc2ccc(NC(=O)c3cccc4cc5ccccc5nc34)cc2)cc1OC — within 1.5-fold, 680 nM
- C[C@H](Cc1ccc(OCCNC[C@H](O)c2cccc(Cl)c2)cc1)NC[C@H](O)c1ccc(Cl)c(Cl)c1 — within 1.5-fold, 958 nM
- CC(C)(C)c1cc(C(=O)N2CCN(c3ccc(C(F)(F)F)cn3)CC2)n(Cc2ccc(F)cc2)n1 — within 1.5-fold, 978 nM
- COc1ccc(-c2ccc(NC(=O)c3cccc(C#N)c3)cc2)cc1CN1CCNCC1 — within 1.5-fold, 728 nM
- NCCNc1ccnc2cc(Cl)ccc12 — 7.4-fold lower, 125 nM
- O=C(NCc1ccc(Cl)c(Cl)c1)c1ccc(C2CCCN(Cc3ccc4[nH]cnc4c3)C2)cc1 (stereo unspecified) — within 1.5-fold, 776 nM
- Cn1cccc1C(=O)C(=O)Nc1ccc(-c2ccc(-c3nc4cc(F)ccc4[nH]3)cc2)cc1 — within 1.5-fold, 838 nM
- COc1cc(Cc2cnc(N)nc2N)cc(OCCCN2C(=O)c3ccccc3C2=O)c1OC — within 1.5-fold, 985 nM
- COc1ccc(-n2c(=O)c3c(n4c(SC(C)C)nnc24)-c2ccccc2CC32CCCCC2)cc1 — 1.8-fold lower, 502 nM
- N#Cc1ccc2c(c1)CN(C1CCC(NC(=O)/C=C/c3cc(C(F)(F)F)cc(C(F)(F)F)c3)CC1)CCC2 (stereo unspecified) — 1.5-fold higher, 1390 nM
- COc1ccc(CCN(Cc2cccs2)C(=O)c2cc3sccc3n2C)cc1OC — 2.6-fold lower, 349 nM
- CCOc1cc(C)ccc1C1CCN(CCN2CCC(CNC(=O)c3ccc(-c4ccc(C(F)(F)F)cc4)cc3)CC2)CC1 — within 1.5-fold, 701 nM
- CC(C)(C)C(=O)Nc1ccccc1Oc1ccc(Cl)cc1 — 120-fold lower, 7.48 nM
- COc1ccc(NC(=O)/C=C/c2ccc(Cl)c(Cl)c2)cc1N1CCN(C)CC1 — within 1.5-fold, 980 nM
- O=C(O)c1ccc2nc(-c3ccccn3)c(-c3ccccn3)nc2c1 — 4.2-fold lower, 217 nM
- CN(C)CCNCc1ccc(-c2cccc(-c3nc4ccccc4[nH]3)c2)cc1 — within 1.5-fold, 717 nM
- CCCN(CCCCNC(=O)c1ccc(-c2cccnc2)cc1)C1CCc2c(O)cccc2C1 (stereo unspecified) — within 1.5-fold, 1120 nM
- Cc1cccc2nc(-c3ccc(-c4cccc(NC(=O)Nc5cccc(C#N)c5)c4)cc3)[nH]c12 — 1.7-fold lower, 544 nM
- c1nc2nc3c(c(Nc4ccc5c(c4)CCC5)n2n1)CCC3 — within 1.5-fold, 917 nM
- CCOc1cc(C(=O)NCCN2CCCCC2)ccc1-c1nc2cc(Cl)ccc2[nH]1 — within 1.5-fold, 1080 nM
- Cc1[nH]c(C)c(-c2ccc(-c3ccc(OC(F)(F)F)cc3)cc2)c(=O)c1Cl — 26-fold lower, 35.4 nM
- COc1ccc(N2CCN(CCCNC(=O)c3ccc(NC(=O)c4cc(Cl)cc(Cl)c4)cc3)CC2)c(OC)c1 — 3.4-fold lower, 269 nM
- Cc1cc(C(=O)CN2C(=O)NC3(CCCc4ccccc43)C2=O)c(C)n1Cc1ccco1 (stereo unspecified) — within 1.5-fold, 1100 nM
- N=C(NCCc1c[nH]c2ccccc12)NCc1ccccc1Cl — 8.2-fold lower, 112 nM
- C=C1N(C)c2cc([N+](=O)[O-])c(N)cc2C1(C)C — 1.9-fold lower, 486 nM
